Assay results reported in BindingDB's records for doi:10.1002/cbic.201000376 (Gyeongsang National University, 2010).

These compounds were tested against Alpha-glucosidase MAL12 (Saccharomyces cerevisiae (strain ATCC 204508 / S288c), UniProt P53341) (assay: Inhibition Assay).
Procedure: All enzymatic activities were determined by using the appropriate substrate (p-nitrophenyl-alpha-D-glucopyranoside, p-nitrophenyl-beta-D-gulcopyranoside, o-nitrophenyl-alpha-D-manno-pyranoside, p-nitrohenyl-alpha-D-galactopyranoside and strach at the pH or each enzyme.

Alpha-glucosidase MAL12, sequence (P53341 whole entry): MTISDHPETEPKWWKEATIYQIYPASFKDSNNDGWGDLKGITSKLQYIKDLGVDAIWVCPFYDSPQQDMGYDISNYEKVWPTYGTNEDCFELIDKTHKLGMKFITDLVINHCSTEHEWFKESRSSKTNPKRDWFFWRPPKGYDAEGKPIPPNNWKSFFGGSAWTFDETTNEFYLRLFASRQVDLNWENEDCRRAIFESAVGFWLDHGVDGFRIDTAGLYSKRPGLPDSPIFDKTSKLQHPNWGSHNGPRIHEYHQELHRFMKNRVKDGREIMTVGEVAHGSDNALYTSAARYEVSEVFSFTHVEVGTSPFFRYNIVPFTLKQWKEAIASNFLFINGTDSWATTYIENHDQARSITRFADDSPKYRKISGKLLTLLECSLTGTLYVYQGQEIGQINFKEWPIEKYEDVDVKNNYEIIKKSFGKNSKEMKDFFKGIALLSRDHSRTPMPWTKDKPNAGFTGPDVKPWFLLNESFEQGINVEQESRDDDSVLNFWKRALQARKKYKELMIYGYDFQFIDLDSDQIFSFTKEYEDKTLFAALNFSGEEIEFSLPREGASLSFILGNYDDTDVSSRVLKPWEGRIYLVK

SMILES | IC50 | Ki
Nc1ccc(/C=C/c2ccc(O)cc2)cc1 | > 200 µM | –
Oc1ccc(/C=C/c2cc(O)cc(O)c2)cc1 [5-[(E)-2-(4-hydroxyphenyl)ethenyl]benzene-1,3-diol] | 26.4 µM | 21.5 µM
CNc1ccc(/C=C/c2ccc(O)c(O)c2)cc1 [Stilbene derivative, 4] | > 200 µM | –
O=C(Nc1ccccc1)Nc1ccc(/C=C/c2ccc(O)cc2)cc1 [Urea derivative, 14] | 29.1 µM | 17 µM
COc1ccc(NC(=O)Nc2ccc(/C=C/c3ccc(O)cc3)cc2)cc1 [Urea derivative, 15] | 60.1 µM | –
O=C(Nc1ccc(/C=C/c2ccc(O)cc2)cc1)Nc1ccc(F)cc1F [Urea derivative, 16] | 18.5 µM | 9.4 µM
O=C(Nc1ccccc1)Nc1ccc(/C=C/c2cc(O)cc(O)c2)cc1 [Urea derivative, 17] | 58.8 µM | –
O=C(Nc1ccc(/C=C/c2cc(O)cc(O)c2)cc1)Nc1ccc(F)cc1F [Urea derivative, 19] | 64.3 µM | –

Second part, the compound after the results:

IC50 | Ki | SMILES
> 200 µM | – | CC(=O)Nc1ccc(/C=C/c2ccc(O)c(O)c2)cc1 [Stilbene derivative, 5]
42.1 µM | 10.6 µM | O=C(Nc1ccccc1)Nc1ccc(/C=C/c2ccc(O)c(O)c2)cc1 [Urea derivative, 6]
19.5 µM | 10.5 µM | COc1ccc(NC(=O)Nc2ccc(/C=C/c3ccc(O)c(O)c3)cc2)cc1 [Urea derivative, 7]
68.5 µM | – | Nc1ccc(NC(=O)Nc2ccc(/C=C/c3ccc(O)c(O)c3)cc2)cc1 [Urea derivative, 8]
63.6 µM | – | Cc1ccc(NC(=O)Nc2ccc(/C=C/c3ccc(O)c(O)c3)cc2)cc1 [Urea derivative, 9]
28.8 µM | 12.1 µM | O=C(Nc1ccc(/C=C/c2ccc(O)c(O)c2)cc1)Nc1ccc(C(F)(F)F)cc1 [Urea derivative, 10]
19.8 µM | 7.2 µM | O=C(Nc1ccc(F)cc1)Nc1ccc(/C=C/c2ccc(O)c(O)c2)cc1 [Urea derivative, 11]
8.4 µM | 3.2 µM | O=C(Nc1ccc(/C=C/c2ccc(O)c(O)c2)cc1)Nc1ccc(F)cc1F [Urea derivative, 12]
14.3 µM | 4.6 µM | O=C(Nc1ccc(Cl)cc1)Nc1ccc(/C=C/c2ccc(O)c(O)c2)cc1 [Urea derivative, 13]
105 µM | – | COc1ccc(NC(=O)Nc2ccc(/C=C/c3cc(O)cc(O)c3)cc2)cc1 [Urea derivative, 18]
